Legend:
[1] = biological target: T1, human adenosine A2a receptor (Homo sapiens, UniProt P29274); test: Human adenosine A2a receptor radioligand binding assay ([125I]-AB-MECA, CHO cell membranes); settings: for Selectivity A1/A2a: ratio obtained by dividing KiHA1 by KiHA2A; for Ki: recombinant human A2a receptor expressed in CHO cells, Ki from IC50 by Cheng-Prussoff equation, read-out: hA2a Ki
T1 construct: expressed in transfected cells; host or cells: CHO cells, semliki forest virus expression system; membrane preparation
T1 sequence (P29274 whole entry): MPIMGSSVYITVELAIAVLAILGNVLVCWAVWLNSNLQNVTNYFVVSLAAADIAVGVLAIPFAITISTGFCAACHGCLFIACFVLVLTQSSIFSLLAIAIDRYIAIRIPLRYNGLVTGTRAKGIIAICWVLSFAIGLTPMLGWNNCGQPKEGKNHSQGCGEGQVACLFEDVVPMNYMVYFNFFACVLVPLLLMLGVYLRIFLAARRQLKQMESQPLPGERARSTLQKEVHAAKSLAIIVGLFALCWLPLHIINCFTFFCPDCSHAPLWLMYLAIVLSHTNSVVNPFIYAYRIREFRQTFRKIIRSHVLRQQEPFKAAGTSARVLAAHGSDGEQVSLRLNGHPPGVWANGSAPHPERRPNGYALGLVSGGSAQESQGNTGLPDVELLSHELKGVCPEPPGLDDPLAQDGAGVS
Experimental: Human Adenosine A2a Receptor
The gene encoding human adenosine A2a receptor was recombinantly introduced and expressed in chinese hamster ovary (CHO) cells using the semliki forest virus expression system. Cells were harvested, washed twice by centrifugation, homogenized and again washed by centrifugation. The final washed membrane pellet was suspended in a Tris (50 mM) buffer containing 120 mM NaCl, 5 mM KCl, 2 mM CaCl2 and 10 mM MgCl2 (pH 7.4) (buffer A). The [^125I]-AB-MECA ([N(6)-(4-amino-3-iodobenzyl)-5′-N-methylcarbamoyl-adenosine]; 0.05 nM) binding assay was carried out in 96-well a plates in the presence of 20 μg of membrane protein and 0.1 U adenosine deaminase in a final volume of […] of buffer A. Non-specific binding was defined using xanthine amine congener (XAC; 2 μM). Compounds were tested at 10 concentrations from 10 μM-0.3 nM. All assays were conducted in duplicate and repeated at least two times. Assay plates were incubated for 1 hour at room temperature before filtration through Whatman Unifilter GF/C 96-well filter plates (preincubated with 0.3% polyethyleneimine). Filters were washed 3 times with 0.3 ml of cold (4° C.) Tris (50 mM)—NaC […]
[…] 1 (120 mM) buffer (pH 7.4). Microscint 40 scintillation fluid (50 μl) was added to each well and the wells sealed. After gentle shaking for 20 min, plates were counted on a Packard Topcount scintillation counter. IC50 values were calculated using a non-linear curve fitting program and Ki values calculated using the Cheng-Prussoff equation.
(§1) In accordance with the invention, it has been shown that compounds of formula I have a high affinity toward the A2A receptor. In Table I below specific values of prepared compounds are described, Values of KiHA2A and KiHA1 are shown in Table I for compounds of formula 1. A low Ki value is indicative of a particular compound's high affinity toward a particular receptor and conversely a higher Ki value is indicative of a lower affinity for that compound toward a particular receptor. […] Generally speaking, compounds that have a higher HA1/HA2A ratio are able to give a substantially complete blockade of the HA2A receptor without substantially affecting the A1 receptor.

[2] = biological target: T2, human adenosine A1 receptor (Homo sapiens, UniProt P30542); test: Human adenosine A1 receptor radioligand binding assay ([3H]-DPCPX, SPA, CHO cell membranes); settings: recombinant human A1 receptor expressed in CHO cells; [3H]-DPCPX 0.6 nM; Ki from IC50 by Cheng-Prussoff equation; read-out: hA1 Ki
T2 construct: expressed in transfected cells; host or cells: CHO cells, semliki forest virus expression system; membrane preparation
T2 sequence (P30542 1-326): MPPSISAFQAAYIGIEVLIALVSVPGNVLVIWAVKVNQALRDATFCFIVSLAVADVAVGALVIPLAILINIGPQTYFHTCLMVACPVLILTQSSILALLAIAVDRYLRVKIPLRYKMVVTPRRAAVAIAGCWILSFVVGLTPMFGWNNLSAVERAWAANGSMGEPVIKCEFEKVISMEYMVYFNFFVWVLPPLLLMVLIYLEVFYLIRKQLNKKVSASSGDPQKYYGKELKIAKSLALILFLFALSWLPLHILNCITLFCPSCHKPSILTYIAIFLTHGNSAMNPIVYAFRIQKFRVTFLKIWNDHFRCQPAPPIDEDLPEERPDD
Experimental: Human Adenosine A^1 Receptor
The gene encoding human adenosinie A1 receptor was recombinantly introduced and expressed in chinese hamster ovary (CHO) cells using the semliki forest virus expression system. Cells were harvested, washed twice by centrifugation, homogenized and again washed by centrifugation. The final washed membrane pellet was suspended in a Tris (50 mM) buffer containing 120 mM NaCl, 5 mM KCl, 2 mM CaCl2 and 10 mM MgCl2 (pH 7.4) (buffer A). The [^3H]-DPCPX (([propyl-3H]8-cyclopentyl-1,3-dipropyxanthine); 0.6 nM) binding assay was carried out in 96-well plates in the presence of 2.5 μg of membrane protein, 0.5 mg of Ysi-poly-1-lysine SPA beads and 0.1 U adenosine deaminase in a final volume of 200 μl of buffer A. Non-specific binding was defined using xanthine amine congener (XAC; 2 μM). Compounds were tested at 10 concentrations from 10 μM-0.3 nM. All assays were conducted in duplicate and repeated at least two times. Assay plates were incubated for 1 hour at room temperature before centrifugation and then bound ligand determined using a Packard Topcount scintillation counter. IC50 values were calculated using a non-linear curve fitting program and Ki values calculated using the Cheng-Prussoff equation.
as §1

SMILES | Selectivity A1/A2a [1] | Ki [1] | Ki [2]
COc1ccc(C(=O)Nc2nc3c(OC)ccc(-c4ccccc4)n3n2)cc1 [Example 7, 4-Methoxy-N-(8-methoxy-5-phenyl-[1,2,4]triazolo[1,5-a]pyridin-2-yl)-benzamide] | 20.8 | 227 nM | 4710 nM
COc1ccc(-c2ccccc2)n2nc(NC(=O)c3ccc(C)s3)nc12 [Example 23, 5-Methyl-thiophene-2-carboxylic acid(8-methoxy-5-phenyl-[1,2,4]triazolo[1,5-a]pyridin-2-yl)-amide] | 43.4 | 65.1 nM | 2830 nM
COc1ccc(-c2ccccc2F)n2nc(NC(=O)c3ccc(C)s3)nc12 [Example 24, 5-Methyl-thiophene-2-carboxylic acid [5-(2-fluoro-phenyl)-8-methoxy-[1,2,4]triazolo[1,5-a]pyridin-2-yl]-amide] | 19.5 | 134 nM | 2610 nM
COc1ccc(-c2ccccc2)n2nc(NC(=O)c3cccc(F)c3)nc12 [Example 3, 3-Fluoro-N-(8-methoxy-5-phenyl-[1,2,4]triazolo[1,5-a]pyridin-2-yl)-benzamide] | 11.6 | 176 nM | 2030 nM
COc1ccc(-c2ccccc2F)n2nc(NC(=O)c3ccc(F)cc3)nc12 [Example 32, 4-Fluoro-N-[5-(2-fluorophenyl)-8-methoxy-[1,2,4]triazolo[1,5-a]pyridin-2-yl]-benzamide] | 24.6 | 229 nM | 5640 nM
CCc1ccc(C(=O)Nc2nc3c(OC)ccc(-c4cccs4)n3n2)cc1 [Example 18, 4-Ethyl-N-(8-methoxy-5-thiophen-2-yl-[1,2,4]triazolo[1,5-a]pyridin-2-yl)-benzamide] | 24.2 | 136 nM | 3300 nM
COc1ccc(-c2cccc(F)c2)n2nc(NC(=O)c3ccc(C)s3)nc12 [Example 35, 5-Methyl-thiophene-2-carboxylic acid [5-(3-fluoro-phenyl)-8-methoxy-[1,2,4]triazolo[1,5-a]pyridin-2-yl]-amide] | 10.6 | 128 nM | 1360 nM
COc1ccc(-c2ccccc2)n2nc(NC(=O)c3ccc(Br)cc3)nc12 [Example 9, 4-Bromo-N-(8-methoxy-5-phenyl-[1,2,4]triazolo[1,5-a]pyridin-2-yl)-benzamide] | 22.4 | 102 nM | 2290 nM
COc1ccc(-c2ccc(Cl)cc2)n2nc(NC(=O)c3ccc(C)s3)nc12 [Example 26, 5-Methyl-thiophene-2-carboxylic acid [5-(4-chloro-phenyl)-8-methoxy-[1,2,4]triazolo[1,5-a]pyridin-2-yl]-amide] | 11.1 | 256 nM | 2860 nM
COc1cccc(C(=O)Nc2nc3c(OC)ccc(-c4ccccc4)n3n2)c1 [Example 11, 3-Methoxy-N-(8-methoxy-5-phenyl-[1,2,4]triazolo[1,5-a]pyridin-2-yl)-benzamide] | 23.4 | 159 nM | 3710 nM
COc1ccc(-c2ccccc2)n2nc(NC(=O)c3ccccc3Cl)nc12 [Example 5, 2-Chloro-N-(8-methoxy-5-phenyl-[1,2,4]triazolo[1,5-a]pyridin-2-yl)-benzamide] | 7.3 | 258 nM | 1870 nM
COc1ccc(-c2cccs2)n2nc(NC(=O)c3ccc(Cl)cc3)nc12 [Example 15, 4-Chloro-N-(8-methoxy-5-thiophen-2-yl-[1,2,4]triazolo[1,5-a]pyridin-2-yl)-benzamide] | 25.6 | 114 nM | 2910 nM
CCc1ccc(C(=O)Nc2nc3c(OC)ccc(-c4ccccc4)n3n2)cc1 [Example 10, 4-Ethyl-N-(8-methoxy-5-phenyl-[1,2,4]triazolo[1,5-a]pyridin-2-yl)-benzamide] | 11.5 | 173 nM | 2000 nM
COc1ccc(-c2ccsc2)n2nc(NC(=O)c3ccc(C)s3)nc12 [Example 29, 5-Methyl-thiophene-2-carboxylic acid (8-methoxy-5-thiophen-3-yl-[1,2,4]triazolo[1,5-a]pyridin-2-yl)-amide] | 24.2 | 71.1 nM | 1720 nM
COc1cccc(-c2ccc(OC)c3nc(NC(=O)c4ccc(C)s4)nn23)c1 [Example 27, 5-Methyl-thiophene-2-carboxylic acid [8-methoxy-5-(3-methoxy-phenyl)-[1,2,4]triazolo[1,5-a]pyridin-2-yl]-amide] | 16.5 | 107 nM | 1760 nM
COc1ccc(-c2cccs2)n2nc(NC(=O)c3ccccc3Br)nc12 [Example 17, 2-Bromo-N-(8-methoxy-5-thiophen-2-yl-[1,2,4]triazolo[1,5-a]pyridin-2-yl)-benzamide] | 12.0 | 208 nM | 2490 nM
COc1ccc(-c2ccsc2)n2nc(NC(=O)c3ccc(F)cc3)nc12 [Example 33, 4-Fluoro-N-(8-methoxy-5-thiophen-3-yl-[1,2,4]triazolo[1,5-a]pyridin-2-yl)-benzamide] | 12.3 | 191 nM | 2340 nM
COc1ccc(-c2cccs2)n2nc(NC(=O)c3ccccc3)nc12 [Example 12, N-(8-Methoxy-5-thiophen-2-yl-[1,2,4]triazolo[1,5-a]pyridin-2-yl)-benzamide] | 19.3 | 112 nM | 2150 nM
CCOc1cccc(-c2ccc(OC)c3nc(NC(=O)c4ccc(F)cc4)nn23)c1 [Example 34, N-[5-(3-Ethoxy-phenyl)-8-methoxy-[1,2,4]triazolo[1,5-a]pyridin-2-yl]-4-fluoro-benzamide] | 11.2 | 133 nM | 1490 nM
COc1ccc(C(=O)Nc2nc3c(OC)ccc(-c4cccs4)n3n2)cc1 [Example 16, 4-Methoxy-N-(8-methoxy-5-thiophen-2-yl-[1,2,4]triazolo[1,5-a]pyridin-2-yl)-benzamide] | 14.2 | 238 nM | 3380 nM
CCOc1cccc(-c2ccc(OC)c3nc(NC(=O)c4ccc(C)s4)nn23)c1 [Example 30, 5-Methyl-thiophene-2-carboxylic acid [5-(3-ethoxy-phenyl)-8-methoxy-[1,2,4]triazolo[1,5-a]pyridin-2-yl]-amide] | 18.6 | 72.9 nM | 1360 nM
COc1ccc(-c2cccs2)n2nc(NC(=O)c3ccc(Br)cc3)nc12 [Example 2, 4-Bromo-N-(8-methoxy-5-thiophen-2-yl-[1,2,4]triazolo[1,5-a]pyridin-2-yl)-benzamide] | 37.6 | 63.6 nM | 2390 nM

From patent US6514989B1, “Aromatic and heteroaromatic substituted 1,2,4-triazolo pyridine derivatives” (Hoffmann-La Roche Inc., priority 2001, dated 2003)
